# Assay results from patent US11510949B2, “Use of the treatment or improvement of sleep disorders by Lactobacillus brevis ProGA28 and/or its metabolites” (SYNGEN BIOTECH CO., LTD, priority 2019, dated 2022).
# Tested on: SHR rats
# Test: Sleep quality and quantity assessment in SHR rats after tube feeding (EEG/EMG sleep staging)
# Format: in vivo
# [1] = pure substance administered, FIG. 5
# Protocol: The dosage of the test products used in the following examples is based on the daily human consumption of 8.3 mg/kg, and then according to the body surface area model coefficient of 6.2 to calculate the standard feeding dosage for rats being 52 mg/kg which is set as 1.0× dose given in the following examples.
# The “sleep stage” called in the following examples includes the following three stages: awake (AW); quiet sleep (QS) which is equivalent to human non-rapid eye movement sleep (NREM) and paradoxical sleep (PS) which is equivalent to human rapid eye movement sleep (REM).
# Frequency domain analysis of brain waves and myoelectric waves: each 16 seconds (1024 points) of brain wave signal acquisition is called a time window (or epoch), and is compared with 8 seconds before the next time window (50%) overlap for analysis. The fast Fourier transform is used to estimate the power spectral density and evaluate the activity of brain waves in different frequency bands. […]
# Each test product was dissolved in drinking water and administered by tube feeding, the administration time was 1 hour before the light, and the physiological information of each group of rats was recorded at the beginning of the light, as a basis for sleep assessment.
# In addition, pure gamma-aminobutyric acid was also administered to the SHR rats, and as described above, the physiological information of SHR rats was detected and recorded as a basis for sleep assessment.
# The quality and quantity of sleep in the 24 hours after each test product was fed which was used as the range of sleep assessment:
# The quantity of sleep: including the total time of sleep and wakefulness, the number of falling asleep and the average time of each sleep stage (duration) etc., and evaluate the quantity of sleep for each sleep stage; and the sleep of the group fed water is defined as 100%, used for comparing with the other groups fed test products to show the difference in each sleep stage.
smiles,measurement,setting,value
"NCCCC(=O)O [pure y-aminobutyric acid, γ-aminobutyric acid]",quality and quantity of sleep,"overall comparison of the figures, dose not specified",not helpful for the improvement
same,sleep quality of rats,[1],not helpful to increase the sleep quality
same,sleep time,[1],can not increase sleep time
